Measured values published in US8580811B2 (Ligand Pharmaceuticals Incorporated, priority 2005, dated 2013).

biological target: T1, human AR (Homo sapiens, UniProt P10275); assay: IR Binding Assay: whole cell competitive binding of test compounds against 3H-DHT in COS-1 cells transfected with pRShAR
T1 construct: expressed in transfected cells; host or cells: COS-1 cells
T1 sequence (P10275 1-920): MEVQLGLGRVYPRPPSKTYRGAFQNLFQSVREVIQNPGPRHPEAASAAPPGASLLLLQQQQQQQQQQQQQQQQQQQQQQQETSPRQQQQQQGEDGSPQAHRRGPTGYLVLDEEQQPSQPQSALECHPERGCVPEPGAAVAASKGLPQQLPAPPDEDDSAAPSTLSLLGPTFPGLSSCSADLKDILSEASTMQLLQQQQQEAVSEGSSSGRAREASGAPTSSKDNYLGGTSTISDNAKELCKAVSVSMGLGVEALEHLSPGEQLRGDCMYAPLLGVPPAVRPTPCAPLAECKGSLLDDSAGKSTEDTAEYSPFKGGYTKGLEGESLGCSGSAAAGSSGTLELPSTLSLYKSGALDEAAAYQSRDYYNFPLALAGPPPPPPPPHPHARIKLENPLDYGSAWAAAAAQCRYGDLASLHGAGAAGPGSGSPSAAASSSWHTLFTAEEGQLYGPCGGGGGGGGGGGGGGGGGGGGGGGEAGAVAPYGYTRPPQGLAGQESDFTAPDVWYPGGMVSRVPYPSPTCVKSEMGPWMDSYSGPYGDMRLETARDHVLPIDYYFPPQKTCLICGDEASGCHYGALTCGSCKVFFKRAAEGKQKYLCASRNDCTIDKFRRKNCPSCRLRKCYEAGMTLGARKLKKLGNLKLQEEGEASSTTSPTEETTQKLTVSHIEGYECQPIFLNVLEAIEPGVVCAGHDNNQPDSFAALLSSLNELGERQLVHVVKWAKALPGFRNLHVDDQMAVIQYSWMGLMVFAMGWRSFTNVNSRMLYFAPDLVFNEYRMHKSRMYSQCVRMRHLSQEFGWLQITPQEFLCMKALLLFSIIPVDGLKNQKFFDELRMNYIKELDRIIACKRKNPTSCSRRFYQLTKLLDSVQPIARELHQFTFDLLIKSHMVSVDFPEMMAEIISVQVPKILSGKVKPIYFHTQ
Procedure, shortened: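 COS-1 cells transfected with pRShAR plus β-Gal reporter, serum-starved 24 h, then exposed to 1 nM ³H-DHT with compounds at 10^−10 to 10^−6 M for 3 h at 37 °C. Bound ³H-DHT counted in lysates, normalized to β-Gal. IC50 from log-logit plot; Ki via Cheng-Prusoff using Kd from Scatchard saturation analysis.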

Compared with `Cc1c(CO)n(CC(F)(F)F)c2ccc3[nH]c(=O)cc(Cl)c3c12` [Compound 230, 9-Chloro-2-hydroxymethyl-1-methyl-3-(2,2,2-trifluoro-ethyl)-3,6-dihydro-pyrrolo[3,2-f]-quinolin-7-one], `Cc1c(C)n(CCC(F)(F)F)c2ccc3[nH]c(=O)cc(Cl)c3c12` [Compound 213, 9-Chloro-1,2-dimethyl-3-(3,3,3-trifluoropropyl)-3,6-dihydro-pyrrolo[3,2-f]quinolin-7-one] is lower in Ki: greater than 10 nM for the first, less than 5 nM for the second. The second binds more tightly here.

`O=c1cc(Cl)c2c3c(ccc2[nH]1)N(CC(F)(F)F)C1CCCC31` (racemic) [Compound 126, (±)-9-Chloro-3-(2,2,2-trifluoro-ethyl)-1,2-trimethylene-1,2,3,6-tetrahydro-pyrrolo[3,2-f]-quinolin-7-one] and `O=c1cc(Cl)c2c3c(ccc2[nH]1)N(CC(F)(F)F)C1CCCCC31` (racemic) [Compound 133, (±)-9-Chloro-1,2-tetramethylene-3-(2,2,2-trifluoro-ethyl)-1,2,3,6-tetrahydro-pyrrolo[3,2-f]quinolin-7-one] cannot be ordered by Ki: less than 5 nM for the first, less than 5 nM for the second.

`Cc1ccc(-c2c(C)c3c4c(Cl)cc(=O)[nH]c4ccc3n2CC(F)(F)C(F)(F)F)o1` [Compound 267, 9-Chloro-1-methyl-2-(5-methylfuran-2-yl)-3-(2,2,3,3,3-pentafluoropropyl)-3,6-dihydro-pyrrolo[3,2-f]quinolin-7-one] and `Cc1c(-c2nccs2)n(CC(F)(F)C(F)(F)F)c2ccc3[nH]c(=O)cc(Cl)c3c12` [Compound 262, 9-Chloro-1-methyl-3-(2,2,3,3,3-pentafluoropropyl)-2-(1,3-thiazol-2-yl)-3,6-dihydro-pyrrolo[3,2-f]quinolin-7-one] fall in the same range of Ki: 5 to 10 nM for the first, 5 to 10 nM for the second.

`CCC1C(C)c2c(ccc3[nH]c(=O)cc(C(F)(F)F)c23)N1CCC(F)(F)F` (racemic) [Compound 180, (±)-2-Ethyl-1-methyl-9-trifluoromethyl-3-(3,3,3-trifluoropropyl)-1,2,3,6-tetrahydro-pyrrolo[3,2-f]quinolin-7-one] and `CC1c2c(ccc3[nH]c(=O)cc(C(F)(F)F)c23)N(CCC(F)(F)F)C1C` (racemic) [Compound 174, (±)-1,2-Dimethyl-9-trifluoromethyl-3-(3,3,3-trifluoropropyl)-1,2,3,6-tetrahydro-pyrrolo[3,2-f]quinolin-7-one] cannot be ordered by Ki: less than 5 nM for the first, less than 5 nM for the second.

`Cc1c(-c2cccnc2)n(C[C@H](O)C(F)(F)F)c2ccc3[nH]c(=O)cc(Cl)c3c12` [Compound 274, (S)-9-Chloro-1-methyl-2-(3-pyridyl)-3-(3,3,3-trifluoro-2-hydroxy-propyl)-3,6-dihydro-pyrrolo[3,2-f]quinolin-7-one] and `Cc1c(-c2ccccc2)n(C[C@@H](O)C(F)(F)F)c2ccc3[nH]c(=O)cc(Cl)c3c12` [Compound 280, 9-Chloro-1-methyl-2-phenyl-3-(3,3,3-trifluoro-2-hydroxy-propyl)-3,6-dihydro-pyrrolo[3,2-f]quinolin-7-one] cannot be ordered by Ki: greater than 10 nM for the first, greater than 10 nM for the second.

`Cc1c(-c2cccs2)n(C[C@@H](O)C(F)(F)F)c2ccc3[nH]c(=O)cc(Cl)c3c12` [Compound 282, (R)-9-Chloro-1-methyl-2-thiophen-2-yl-3-(3,3,3-trifluoro-2-hydroxy-propyl)-3,6-dihydro-pyrrolo[3,2-f]quinolin-7-one] and `Cc1c(C)n(C[C@@H](O)C(F)(F)F)c2ccc3[nH]c(=O)cc(Cl)c3c12` [Compound 278, (R)-9-Chloro-1,2-dimethyl-3-(3,3,3-trifluoro-2-hydroxy-propyl)-3,6-dihydro-pyrrolo[3,2-f]-quinolin-7-one] cannot be ordered by Ki: less than 5 nM for the first, less than 5 nM for the second.

Compared with `CCc1c(C)c2c3c(C(F)(F)F)cc(=O)[nH]c3ccc2n1CCCC(F)(F)F` [Compound 228, 2-Ethyl-1-methyl-3-(4,4,4-trifluorobutyl)-9-trifluoromethyl-3,6-dihydro-pyrrolo[3,2-f]-quinolin-7-one], `Cc1c(C)n(C[C@H](O)CO)c2ccc3[nH]c(=O)cc(C(F)(F)F)c3c12` [Compound 295, (S)-3-(2,3-dihydroxypropyl)-1,2-dimethyl-9-trifluoromethyl-3,6-dihydro-pyrrolo[3,2-f]-quinolin-7-one] is higher in Ki: less than 5 nM for the first, greater than 10 nM for the second. The first binds more tightly here.

Compared with `CC1c2c(ccc3[nH]c(=O)cc(Cl)c23)N(CC(F)(F)C(F)(F)F)C1c1ccccc1` (racemic) [Compound 171, (±)-9-Chloro-1-methyl-3-(2,2,3,3,3-pentafluoropropyl)-2-phenyl-1,2,3,6-tetrahydro-pyrrolo[3,2-f]quinolin-7-one], `CC1c2c(ccc3[nH]c(=O)cc(Cl)c23)N(CC(F)(F)F)C1c1ccccc1F` (racemic) [Compound 156, (±)-9-Chloro-2-(2-fluorophenyl)-1-methyl-3-(2,2,2-trifluoroethyl)-1,2,3,6-tetrahydro-pyrrolo[3,2-f]quinolin-7-one] is lower in Ki: greater than 10 nM for the first, less than 5 nM for the second.

`Cc1c(-c2ccc(F)cc2F)n(CC(F)(F)F)c2ccc3[nH]c(=O)cc(Cl)c3c12` [Compound 200, 9-Chloro-2-(2,4-difluorophenyl)-1-methyl-3-(2,2,2-trifluoroethyl)-3,6-dihydro-pyrrolo[3,2-f]-quinolin-7-one] and `Cc1c(-c2ccccc2F)n(CC(F)(F)F)c2ccc3[nH]c(=O)cc(Cl)c3c12` [Compound 199, 9-Chloro-2-(2-fluorophenyl)-1-methyl-3-(2,2,2-trifluoroethyl)-3,6-dihydro-pyrrolo[3,2-f]quinolin-7-one] cannot be ordered by Ki: less than 5 nM for the first, less than 5 nM for the second.

`CC1c2c(ccc3[nH]c(=O)cc(Cl)c23)N(CC(C)(C)C)C1C` (racemic) [Compound 141, (±)-9-Chloro-1,2-dimethyl-3-(2,2-dimethylpropyl)-1,2,3,6-tetrahydro-pyrrolo[3,2-f]quinolin-7-one] and `CC1c2c(ccc3[nH]c(=O)cc(Cl)c23)N(CC(F)F)C1C` (racemic) [Compound 143, (±)-9-Chloro-3-(2,2-difluoroethyl)-1,2-dimethyl-1,2,3,6-tetrahydro-pyrrolo[3,2-f]quinolin-7-one] fall in the same range of Ki: 5 to 10 nM for the first, 5 to 10 nM for the second.

First: CCC1C(C)c2c(ccc3[nH]c(=O)cc(Cl)c23)N1CC (racemic) [Compound 166, (±)-9-Chloro-2,3-diethyl-1-methyl-1,2,3,6-tetrahydro-pyrrolo[3,2-f]quinolin-7-one]
Second: Cc1[nH]c2ccc3[nH]c(=O)cc(Cl)c3c2c1C [Compound 105, 9-Chloro-1,2-dimethyl-3,6-dihydro-pyrrolo[3,2-f]quinolin-7-one]
The Ki of the first is higher: greater than 10 nM for the first, less than 5 nM for the second.

`Cc1c(C)n(CCOCCOCCO)c2ccc3[nH]c(=O)cc(C(F)(F)F)c3c12` [Compound 298, 3-{2-[2-(2-Hydroxy-ethoxy)-ethoxy]-ethyl}-1,2-dimethyl-9-trifluoromethyl-3,6-dihydro-pyrrolo[3,2-f]quinolin-7-one] and `Cc1c(C)n(C[C@@H](O)CO)c2ccc3[nH]c(=O)cc(Cl)c3c12` [Compound 292, (R)-9-Chloro-3-(2,3-dihydroxypropyl)-1,2-dimethyl-3,6-dihydro-pyrrolo[3,2-f]-quinolin-7-one] cannot be ordered by Ki: greater than 10 nM for the first, greater than 10 nM for the second.

First: O=c1cc(Cl)c2c(ccc3[nH]c4c(c32)CCCC4)[nH]1 [Compound 113, 9-Chloro-1,2-tetramethylene-3,6-dihydro-pyrrolo[3,2-f]quinolin-7-one]
Second: CCc1c(-c2cccs2)[nH]c2ccc3[nH]c(=O)cc(Cl)c3c12 [Compound 123, 9-Chloro-1-ethyl-2-thien-2-yl-3,6-dihydro-pyrrolo[3,2-f]quinolin-7-one]
The Ki of the first is higher: greater than 10 nM for the first, 5 to 10 nM for the second. The second binds more tightly here.

Going from `Cc1c(C=O)c2c3c(Cl)cc(=O)[nH]c3ccc2n1CCO` [Compound 192, 9-Chloro-3-(2-hydroxy-ethyl)-2-methyl-7-oxo-6,7-dihydro-3H-pyrrolo[3,2-f]quinoline-1-carbaldehyde] to `Cc1c(C(F)(F)F)n(CC(O)C(F)(F)F)c2ccc3[nH]c(=O)cc(Cl)c3c12` (racemic) [Compound 233, (±)-9-Chloro-1-methyl-3-(3,3,3-trifluoro-2-hydroxypropyl)-2-trifluoromethyl-3,6-dihydropyrrolo[3,2-f]quinolin-7-one], the Ki falls from greater than 10 nM to less than 5 nM. The second binds more tightly here.

`Cc1c(-c2ccc(F)cc2)n(CC(F)(F)F)c2ccc3[nH]c(=O)cc(Cl)c3c12` [Compound 194, 9-Chloro-2-(4-fluorophenyl)-1-methyl-3-(2,2,2-trifluoroethyl)-3,6-dihydro-pyrrolo[3,2-f]quinolin-7-one] and `Cc1c(-c2nccs2)n(CC(F)(F)F)c2ccc3[nH]c(=O)cc(Cl)c3c12` [Compound 252, 9-Chloro-1-methyl-2-(1,3-thiazol-2-yl)-3-(2,2,2-trifluoroethyl)-3,6-dihydro-pyrrolo[3,2-f]-quinolin-7-one] cannot be ordered by Ki: less than 5 nM for the first, less than 5 nM for the second.
